Test results published in paper PMC4804716 (The FEBS journal, 2015).

Assays:
[1] = Glutathionylation reaction kinetics; assay type: physicochemical; settings: pH 7.5
[2] = Cyclic voltammetry of menadione derivatives; assay type: physicochemical; settings: DMSO
[3] = pKa estimation by absorption spectrophotometry; assay type: physicochemical
[4] = Cytotoxicity against human MRC-5 cells; assay type: cell-based; settings: human lung MRC-5 fibroblasts (MRC-5SV2 cells)
[5] = biological target: T1, Schistosoma mansoni thioredoxin glutathione reductase (SmTGR) (Schistosoma mansoni, UniProt Q962Y6); experiment: SmTGR DTNB assay; assay type: biochemical
T1 sequence (Q962Y6 1-598): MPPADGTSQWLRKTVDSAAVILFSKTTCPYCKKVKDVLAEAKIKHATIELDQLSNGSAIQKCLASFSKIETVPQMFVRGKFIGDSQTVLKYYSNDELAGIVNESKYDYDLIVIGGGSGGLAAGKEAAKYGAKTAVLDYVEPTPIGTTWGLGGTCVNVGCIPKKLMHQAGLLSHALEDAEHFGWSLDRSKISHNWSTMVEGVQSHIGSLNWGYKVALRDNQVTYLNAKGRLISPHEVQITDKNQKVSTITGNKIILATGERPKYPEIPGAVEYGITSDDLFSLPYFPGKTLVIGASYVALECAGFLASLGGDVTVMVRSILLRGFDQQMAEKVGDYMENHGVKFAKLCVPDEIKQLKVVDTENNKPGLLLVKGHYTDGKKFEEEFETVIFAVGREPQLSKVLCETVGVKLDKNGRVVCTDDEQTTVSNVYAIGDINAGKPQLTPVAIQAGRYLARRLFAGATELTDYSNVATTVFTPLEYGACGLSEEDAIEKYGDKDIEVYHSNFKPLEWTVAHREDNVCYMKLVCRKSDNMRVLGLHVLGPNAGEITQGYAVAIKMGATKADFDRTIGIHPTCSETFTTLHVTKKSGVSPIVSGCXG

S. mansoni worms = experiment: Antischistosomal activity against adult, ex vivo worms; assay type: cell-based, Schistosoma mansoni
[6] = biological target: T1, Schistosoma mansoni thioredoxin glutathione reductase (SmTGR); experiment: Time-dependent inactivation of SmTGR; settings: high inhibitor concentrations, 5 min incubation without NADPH

COc1ccc(OCC2=C(C(F)F)C(=O)c3ccccc3C2=O)cc1C(F)(F)F [Compound 9, 2-(difluoromethyl)-3-((4-methoxy-3-(trifluoromethyl)phenoxy)methyl)naphthalene-1,4-dione]
decrease of the k2 values compared to the difluoromenadione itself [1]: ~10 fold
Epa1 ([2]; 0.1 M n-Bu4NPF6, v = 200 mV s^−1, reference KCl(3 M)/Ag/AgCl, first wave): −0.215 V
Ipc1/Ipa1 ([2]; 0.1 M n-Bu4NPF6, v = 200 mV s^−1, first wave): 1.67
E^1½ ([2]; E½ = (Epc+Epa)/2, 0.1 M n-Bu4NPF6, reference KCl(3 M)/Ag/AgCl, first wave): −0.271 V
ΔEp (first wave) ([2]; ΔE = Epa-Epc, 0.1 M n-Bu4NPF6, v = 200 mV s^−1): 111 mV
pKa [3]: ~7.1
IC50 at 3 days [4]: 11.2 µM
IC50 [5]: 46 nM
antischistosomal activity against cultured ex vivo worms (S. mansoni worms; 50 μM compound alone): inactive
killing of worms whether RBCs were present or not (S. mansoni worms; 50 μM, with or without human red blood cells (10 μl/well)): no effect on killing the worms
SmTGR inactivation in the absence of NADPH [6]: resulted in inactivation
